Results: PMC4858918, “Improving the N-terminal diversity of sansanmycin through mutasynthesis” (Microbial Cell Factories, 2016)
Values after ≈ are worked out from the molar mass of the structure shown.

Columns and labels:
Experiment in all cases: MIC, microplate Alamar blue assay (MABA)
Format in all cases: cell-based
[1] = tested on: M. tuberculosis FJ05189 (MDR clinical isolate); conditions: Mycobacterium tuberculosis, read-out: MIC M. tuberculosis FJ05189
[2] = tested on: M. tuberculosis FJ05120 (MDR clinical isolate); conditions: Mycobacterium tuberculosis, read-out: MIC M. tuberculosis FJ05120
[3] = tested on: M. tuberculosis FJ05195 (XDR clinical isolate); conditions: Mycobacterium tuberculosis, read-out: MIC M. tuberculosis FJ05195

| SMILES | MIC [1] [µg/mL] | MIC [2] [µg/mL] | MIC [3] [µg/mL] |
| --- | --- | --- | --- |
| CC[C@@H](CO)NCCN[C@@H](CC)CO [Ethambutol] | 2 (≈ 9.79 µM) | 0.5 (≈ 2.45 µM) | > 128 |
| NNC(=O)c1ccncc1 [Isoniazid] | 8 (≈ 58.3 µM) | 16 (≈ 117 µM) | > 128 |
| CO[C@H]1/C=C/O[C@@]2(C)Oc3c(C)c(O)c4c(O)c(c(/C=N/N5CCN(C)CC5)c(O)c4c3C2=O)NC(=O)/C(C)=C\C=C\[C@H](C)[C@H](O)[C@@H](C)[C@@H](O)[C@@H](C)[C@H](OC(C)=O)[C@@H]1C [Rifampicin] | 4 (≈ 4.86 µM) | > 128 | > 128 |
| [H]/N=C(/N)N[C@H]1[C@H](O)[C@@H](O)[C@H](O[C@@H]2O[C@@H](C)[C@](O)(C=O)[C@H]2O[C@@H]2O[C@@H](CO)[C@H](O)[C@@H](O)[C@@H]2NC)[C@@H](N/C(N)=N\[H])[C@@H]1O [Streptomycin] | < 0.06 | < 0.06 | > 128 |
